Experimental data taken from patent US5527796A, “Thienothiazine derivatives and their use” (Chemisch Pharmazeutische Forschungsgesellschaft m.b.H., priority 1992, dated 1996).

Assays:
cyclooxygenase = experiment: formation of PGD2 by neutrophils as a measure for cyclooxygenase activity (A23187-stimulated, RIA); format: cell-based, Male Sprague Dawley rats; conditions: for IC50: rat neutrophils, A23187 2 μmol/l, 5 min at 37° C., RIA of PGD2
Protocol: (§1) The formation of PGD2 by neutrophils was used as a measure for cyclooxygenase activity and the formation of LTB4 was used as a measure for 5-lipoxygenase activity.
(§2) Male Sprague Dawley rats (250-300 g) were injected with lambda carrageenan 1 mg intraperitoneally (dissolved in 0.5 ml dest.water) per animal. After 16 hours the rats were killed by exposure to diethylether. 15 ml ice cold Hanks balanced salt solution were injected i.p., neutrophils harvested by aspiration (10 ml), centrifuged (5 min, 100 g, 4° C.), the supernatant decanted and cells resuspended in HBSS at 4° C. to 5×10^6 cells/mi. 400 μl cell suspension (2×10^6 cells), 0.5 μl drugs dissolved in DMSO and 49.5 μl HBSS were incubated for 5 min at 37° C. Then 50 μl A23187 (2 μmol/l final conc.) were added followed by 5 min incubation at 37° C. The reaction was stopped by centrifugation for 30 s at 10000 g and the supernatant transferred to precooled plastic tubes and kept in an ice bath for max. 1 hour before starting RIA. PGD2 and LTB4 in the samples were measured after appropriate dilution with HBSS using commercial RIA kits.
(§3) Using the above mentioned methods the new compounds were tested. The inhibition of cyclooxygenase and of 5-lipoxygenase was measured.

5-lipoxygenase = target: T1, 5-lipoxygenase (Rattus norvegicus, UniProt P12527); experiment: formation of LTB4 by neutrophils as a measure for 5-lipoxygenase activity (A23187-stimulated, RIA); format: cell-based, Male Sprague Dawley rats; conditions: A23187 2 μmol/l, 5 min at 37° C.
T1 construct: neutrophils harvested by aspiration; endogenous in cells; host or cells: peritoneal neutrophils of male Sprague Dawley rats, harvested 16 h after intraperitoneal carrageenan
T1 sequence (P12527 1-673): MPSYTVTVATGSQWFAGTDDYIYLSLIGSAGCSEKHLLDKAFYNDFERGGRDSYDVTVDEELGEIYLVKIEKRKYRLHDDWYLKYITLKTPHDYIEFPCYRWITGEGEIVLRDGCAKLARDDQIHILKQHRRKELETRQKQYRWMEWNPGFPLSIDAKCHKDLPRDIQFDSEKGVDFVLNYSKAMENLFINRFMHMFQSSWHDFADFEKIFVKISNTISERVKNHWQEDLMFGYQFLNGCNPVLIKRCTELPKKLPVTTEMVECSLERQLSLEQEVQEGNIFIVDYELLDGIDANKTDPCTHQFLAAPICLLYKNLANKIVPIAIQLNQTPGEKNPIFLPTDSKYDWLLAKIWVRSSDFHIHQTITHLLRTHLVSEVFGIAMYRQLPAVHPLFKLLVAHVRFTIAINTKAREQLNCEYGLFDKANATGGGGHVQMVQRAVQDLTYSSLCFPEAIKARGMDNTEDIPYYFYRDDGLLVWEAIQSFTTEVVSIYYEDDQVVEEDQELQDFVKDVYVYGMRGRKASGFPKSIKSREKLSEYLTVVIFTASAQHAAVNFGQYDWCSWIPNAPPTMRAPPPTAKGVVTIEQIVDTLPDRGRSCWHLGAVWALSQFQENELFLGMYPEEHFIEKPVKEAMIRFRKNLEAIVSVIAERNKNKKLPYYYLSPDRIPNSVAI
Protocol: as §1, §2, §3

Compound | inhibition of cyclooxygenase (in words) (cyclooxygenase; PGD2 formation) | IC50 (cyclooxygenase) | IC50 (5-lipoxygenase)
CN1C(C(=O)Nc2ccccn2)=C(O)c2sc(Cl)cc2S1(=O)=O [Compound A, 6-chloro-4-hydroxy-2-methylo-N-(2-pyridyl)-2h-thieno[2,3-e]-1,2-thiazine-3-carboxamide-1,1-dioxide, reference compound] | inhibited only cyclooxygenase | 20 nM | > 10000 nM
CN1C(C(=O)Nc2cccc(CCc3ccccc3)n2)=C(O)c2sc(Cl)cc2S1(=O)=O [Example 4, 6-Chloro-4-hydroxy-2-methyl-N-[6-(2-phenylethyl)-2-pyridyl]-2H-thieno[2,3-e]-1,2-thiazine-3-carboxamide-1,1-dioxide] |  | 190 nM | 2700 nM
CN1C(C(=O)Nc2cccc(C#Cc3ccccc3)n2)=C(O)c2sc(Cl)cc2S1(=O)=O [Example 7, 6-Chloro-4-hydroxy-2-methyl-N-[6-phenylethinyl]-2-pyridyl-2H-thieno[2,3-e]-1,2-thiazin-3-carbox-amide-1,1,-dioxide] |  | 410 nM | 3700 nM
CN1C(C(=O)Nc2cccc(CCCc3ccccc3)n2)=C(O)c2sc(Cl)cc2S1(=O)=O [Example 8, 6-Chloro-4-hydroxy-2-methyl-N-[6-(3-phenylpropyl)]-2-pyridyl-2H-thieno[2,3-e]-1,2-thiazin-3-carbox-amide-1,1,-dioxide] |  | 510 nM | 4200 nM
CN1C(C(=O)Nc2cccc(CCCCc3ccccc3)n2)=C(O)c2sc(Cl)cc2S1(=O)=O [Example 9, 6-Chloro-4-hydroxy-2-methyl-N-[6-(4-phenylbutyl)]-2-pyridyl-2H-thieno[2,3-e]-1,2-thiazin-3-carbox-amide-1,1,-dioxide] |  | 750 nM | 1900 nM
CN1C(C(=O)Nc2cccc(COc3ccc(F)cc3)n2)=C(O)c2sc(Cl)cc2S1(=O)=O [Example 10, 6-Chloro-4-hydroxy-2-methyl-N-[6-(4-fluorphenoxy-methyl)]-2-pyridyl-2H-thieno[2,3-e]-1,2-thiazin-3-carboxamide-1,1,-dioxide] |  | 450 nM | 4800 nM
CN1C(C(=O)Nc2cccc(COc3ccccc3)n2)=C(O)c2sc(Cl)cc2S1(=O)=O [Example 11] |  | 120 nM | 7300 nM
CN1C(C(=O)Nc2cccc(-c3cc4ccccc4o3)n2)=C(O)c2sc(Cl)cc2S1(=O)=O [Example 12, 6-Chloro-4-hydroxy-2-methyl-N-[6-(2-benzo(b)furyl)]-2-pyridyl-2H-thieno[2,3-e]-1,2-thiazin-3-carbox-amide-1,1,-diol] |  | 16 nM | 2000 nM
CN1C(C(=O)Nc2cccc(OCc3ccccc3)n2)=C(O)c2sc(Cl)cc2S1(=O)=O [Example 13, 6-Chloro-4-hydroxy-2-methyl-N-[6-phenylmethoxy]-2-pyridyl-2H-thieno[2,3-e]-1,2-thiazin-3-carbox-amide-1,1,-dioxide] |  | 150 nM | 5100 nM
CN1C(C(=O)Nc2cccc(/C=C/c3ccccc3)n2)=C(O)c2sc(Cl)cc2S1(=O)=O [Example 14, 6-Chloro-4-hydroxy-2-methyl-N-[6-((E)-2-phenylethenyl)]-2-pyridyl-2H-thieno[2,3-e]-1,2-thiazin-3-carbox-amide-1,1,-dioxide] |  | 180 nM | 4300 nM
CN1C(C(=O)Nc2cccc(OCc3ccc4ccccc4n3)n2)=C(O)c2sc(Cl)cc2S1(=O)=O [Example 17, 6-Chloro-4-hydroxy-2-methyl-N-[6-quinalinylmethoxy]-2-pyridyl-2H-thieno[2,3-e]-1,2-thiazin-3-carbox-amide-1,1,-dioxide] |  | 660 nM | 2000 nM
CN1C(C(=O)Nc2cccc(OCc3cc4ccccc4s3)n2)=C(O)c2sc(Cl)cc2S1(=O)=O [Example 20] |  | 350 nM | 3200 nM
